Patent US10053497B2, “Therapeutic epitopes and uses thereof” (OXFORD UNIVERSITY INNOVATION LIMITED, priority 2002, dated 2018)

Tests used:
Format in all cases: cell-based, human
[1] = tested on: PBMC of HLA-DQ2+ coeliac subjects; assay: IFNγ ELISpot, comprehensive gliadin epitope mapping in HLA-DQ2+ coeliac subjects after gluten challenge; conditions: for Mean (SEM) bioactivity of deamidated peptides as % of P04722 E85: 20 μg/ml, HLA-DQ2 coeliac subjects C01-5; for IFNg ELISpot response compared to P04722 77-93 QE85 (SEQ ID NO: 27): mean (SEM): peptides grouped by structure
Method in brief: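 PBMC (2-8×10^5/well) from HLA-DQ2+ coeliac subjects on gluten-free diet were taken before and on day 6/7 after 3-day bread challenge. They were incubated overnight with 20mer peptides or pools (20 μg/ml each), ± tTG deamidation (tTG 64 μg/ml in wells), in RPMI/10% human AB serum. Net sfc/million minus blank; single-peptide responses as % of P04722 77-93 QE85.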

[2] = tested on: PBMC of coeliac patients; assay: ELISpot of the 652 peptides in patients challenged with wheat or rye; conditions: for Dominance among individual peptide responses, wheat: wheat challenge; for Dominance among individual peptide responses, rye: rye challenge
Source text: Dominance depends on wheat or rye. For wheat, dominant peptides include peptide numbers 89, 90 and 91 (referring to sequence numbers in Table 23) (SEQ ID NO: 195, SEQ ID NO:196 and SEQ ID NO:197 respectively). For rye, dominant peptides include peptide numbers 368, 369, 370, 371, and 372 (referring to sequence numbers in Table 23) (SEQ ID NO:474, SEQ ID NO:475, SEQ ID NO:476, SEQ ID NO:477 and SEQ ID NO:478 respectively).

[3] = tested on: PBMC from coeliac disease subjects; assay: IFNγ ELISPOT with PBMC of coeliac disease subjects after bread/gluten challenge (agonist bioactivity of peptides); conditions: for Bioactivity % of unmodified A-gliadin 57-73 QE65 (G) / % agonist. (agonist activity compared to A-gliadin 57-73 QE65): 50 mcg/ml; for Bioactivity % of unmodified A-gliadin 57-73 QE65 (G): PBMC from 8 subjects, blank 7.1%; for % agonist. (agonist activity compared to A-gliadin 57-73 QE65): Table 9
[4] = tested on: PBMC from coeliac volunteers; assay: Antagonism of A-gliadin 57-73 QE65 IFNgamma ELISPOT response (simultaneous addition of peptide); conditions: variant 50 μg/ml plus A-gliadin 57-73 QE65 10 μg/ml; n=5
Method: Simultaneous addition of peptide (50 μg/ml) or buffer and A-gliadin 57-73 QE65 (SEQ ID NO:2) (10 μg/ml) in IFNgamma ELISPOT using PBMC from coeliac volunteers 6 days after commencing 3 day gluten challenge (n=5). Results were expressed as response with peptide plus A-G 57-73 QE65 (mean of duplicates) as % response with buffer plus A-G 57-73 QE65 (mean of 20 replicates). (See Table 9).

[5] = A-gliadin 57-73 with the named amino acid at position 65, 50 μg/ml, 3 subjects, day 6

| Compound | Bioactivity % of unmodified A-gliadin 57-73 QE65 (G) [3] | % agonist. (agonist activity compared to A-gliadin 57-73 QE65) [3] | % Inhibit. of A-gliadin 57-73 QE65 interferon gamma ELISPOT response [4] | also measured |
| --- | --- | --- | --- | --- |
| 89: Table 23 20mer, SEQ ID NO: 195 (PQLPYPQPQLPYPQPQLPYP) [Peptide 89] |  |  |  | Mean (SEM) bioactivity of deamidated peptides as % of P04722 E85 [1]: 94 (18) %; IFNg ELISpot response compared to P04722 77-93 QE85 (SEQ ID NO: 27): mean (SEM) [1]: 94 (18) %; Dominance among individual peptide responses, wheat [2]: dominant |
| 90: Table 23 20mer, SEQ ID NO:196 (PQLPYPQPQLPYPQPQPFRP) [Peptide 90] |  |  |  | Mean (SEM) bioactivity of deamidated peptides as % of P04722 E85 [1]: 87 (16) %; IFNg ELISpot response compared to P04722 77-93 QE85 (SEQ ID NO: 27): mean (SEM) [1]: 87 (16) %; Dominance among individual peptide responses, wheat [2]: dominant |
| 369: Table 23 20mer, SEQ ID NO:475 (QQFPQTQQPQQPFPQPQQTF) [Peptide 369] |  |  |  | Dominance among individual peptide responses, rye [2]: dominant |
| 372: Table 23 20mer, SEQ ID NO:478 (PQQQFIQPQQPQQTYPQRPQ) [Peptide 372] |  |  |  | Dominance among individual peptide responses, rye [2]: dominant |
| N[C@@H](Cc1c[nH]cn1)C(=O)O [Peptide H65] | 26% | 16% | 20% | Mean IFNγ ELISPOT response relative to the immunodominant epitope (Glu65) ([3]; A-gliadin 57-73 with the named amino acid at position 65, 50 μg/ml, 3 subjects, day 6, listed as Histidine): 8% |
| CC[C@H](C)[C@H](N)C(=O)O [Peptide I65] | 21% | 21% | 17% | Mean IFNγ ELISPOT response relative to the immunodominant epitope (Glu65) [3, 5]: 14% |
| NCCCC[C@H](N)C(=O)O [Peptide K65] | 8% | 8% | 15% | Mean IFNγ ELISPOT response relative to the immunodominant epitope (Glu65) ([3]; listed as Lysine): 4% |
| CC(C)C[C@H](N)C(=O)O [Peptide L65] | 16% | 26% | 20% | Mean IFNγ ELISPOT response relative to the immunodominant epitope (Glu65) [3, 5]: 33% |
| N=C(N)NCCC[C@H](N)C(=O)O [Peptide R65] | 11% | 11% | 13% | Mean IFNγ ELISPOT response relative to the immunodominant epitope (Glu65) ([3]; A-gliadin 57-73 with the named amino acid at position 65, 50 μg/ml, 3 subjects, day 6, listed as Arginine): 1% |
